{"source": "patent US10561703B2", "about": "“Method of modulating sex hormone levels using a sex hormone secretion modulator” (GEMVAX & KAEL CO., LTD., priority 2013, dated 2020)", "system": "FSH", "assay": "FSH level in blood (serum CLIA) after repeated sc PEP-1", "assay_type": "in vivo, SD rats", "description": "PEP-1 (peptide of SEQ ID NO: 1), lyophilized white powder, obtained according to the method mentioned in example 1 was dissolved in 0.9% of saline, considering the correction factor of PEP-1 (purity: 94.13%, content: 92.36%, correction factor: 1.15). 50 mg/mL stock solution was further diluted into 20 mg/mL, 2 mg/mL, and 1 mg/mL with 0.9% saline, and stored at 4° C. for a week until the use.\nThe purpose of this example is to confirm the change of sexual hormones in blood from SD rats with 7 days repeated daily administration of SEQ ID NO: 1 peptide, PEP-1. This experiment followed the Ethics Regulation of Animal Test by KAMSI Inc. (Korea Animal Medical Science Institute). In addition, this experiment, Non-GLP experiment, referred to the MFDS (Ministry of Food and Drug Safety) notification; Agent 2013-40 (5th April 2013), Principles of Good Laboratory Practice (1997).\nSPF Rats (Crlj:CD(SD)) were purchased from ORIENTBio Inc. (Mokdong-ri, Buk-myeon, Gapyeong-gun, Gyeonggi-do, Republic of Korea). 75 male (6.5 weeks old and 190˜210 g) and 75 female (6.5 weeks old and 160˜180 g) rats were monitored for 4 days, and 64 of male and female rats (each) were selected for the experiment. Raising condition is as follows; 23±3° C. of temperature, […] of relative humidity, 10˜20 times/hr of number of air changes, 12 hours (8 a.m.˜8 p.m.) of lighting with 150˜300 Lux of intensity.\n64 male and female […] (mentioned above) were divided into 8 groups. Administration regimen, for example, drugs, routes, dosages, and volumes were as follows:\nThe detailed administration regimen is as follows; once a day, twice a day and twice a week in each experimental group. Injection initiated at 10 a.m. every day, and each rat was injected at one minute intervals. Rats in Group 9, 10, 13 and 14 were injected twice a week. Administration of high dose test agent preceded that of low dose. The volume of injection was calculated using recently measured weight of rats, and it was 5 mL/kg. Subcutaneous injection was performed as follows; assistant tilted the back of rat upward, and experimenter sterilized the back of rat with 70% alcohol, followed by subcutaneous injection of test agent with 26 G syringe.\n1.4 mL of blood sample (0.7 mL of serum) was collected after measurement of weight (Day 0). Next day (1 Day), 1.4 mL of blood sample (0.7 mL of serum) was collected twice after injection of test agent (4 hrs and 8 hrs after administration of test agent). For next 6 days (Day 2˜Day 7), 1.4 mL of blood was extracted once everyday (4 hours after injection of test agent). Dose and volume of test agent of each group followed the Table 3, and injection time zone was same every day. Blood was extracted from the jugular vein, and left at room temperature for 30 minutes. Serum was separated using centrifugation (10,000 rpm for 5 minutes), and stored at −70±5° C. in Deep freezer until the use. Blood extraction from each subject was done in the same time zone every day.\nA CLIA (Chemi-Luminescence Immune Assay) Kit was used to analyze Testosterone, Estradiol E2, FSH (Follicle stimulating hormone), and LH (Luteinizing hormone). Analysis was completed within 48 hrs after blood extraction (Laboratory Medicine Department, Chung-Ang University Hospital), and detailed method is as follows; One-way ANOVA was used to verify the comparison between the vehicle and PEP-1, and between different doses of PEP-1. For further analysis, Duncan test was used as parametric test and Dunnett's test as non-parametric test. p<0.05 represents the statistical significance, and all statistical analysis was carried out with SPSS 10.1.\nFSH was analyzed using the samples prepared from example 2. 100 μL of serum was used for analysis. Fundamentals of analysis is Two-site sandwich immunoassay based on direct chemi-luminescent. As mentioned in example 2, CLIA (Chemi-luminescence immune assay) Kit was used, following the manufacture's protocol."}
{"sequence": "EARPALLTSRLRFIPK (listed as Homo sapiens) [PEP-1, hormone secretion modulator / GnRH analog]", "values": [{"measurement": "FSH level in blood", "setting": "G11 Male 100 mg/kg sc 1/day x7, 4 days", "result": 0.23, "unit": "mIU/mL"}, {"measurement": "FSH level in blood", "setting": "G11 Male 100 mg/kg sc 1/day x7, 5 days", "result": 0.21, "unit": "mIU/mL"}, {"measurement": "FSH level in blood", "setting": "G11 Male 100 mg/kg sc 1/day x7, 6 days", "result": 0.12, "unit": "mIU/mL"}, {"measurement": "FSH level in blood", "setting": "G11 Male 100 mg/kg sc 1/day x7, 7 days", "result": 0.15, "unit": "mIU/mL"}, {"measurement": "FSH level in blood", "setting": "G11 Male 100 mg/kg sc 1/day x7, pre", "result": 0.17, "unit": "mIU/mL"}, {"measurement": "FSH level in blood", "setting": "G12 Female 100 mg/kg sc 1/day x7, 4 hr", "result": 0.23, "unit": "mIU/mL"}, {"measurement": "FSH level in blood", "setting": "G12 Female 100 mg/kg sc 1/day x7, 8 hr", "result": 0.25, "unit": "mIU/mL"}, {"measurement": "FSH level in blood", "setting": "G12 Female 100 mg/kg sc 1/day x7, 2 days", "result": 0.28, "unit": "mIU/mL"}, {"measurement": "FSH level in blood", "setting": "G12 Female 100 mg/kg sc 1/day x7, 3 days", "result": 0.19, "unit": "mIU/mL"}, {"measurement": "FSH level in blood", "setting": "G12 Female 100 mg/kg sc 1/day x7, 4 days", "result": 0.15, "unit": "mIU/mL"}, {"measurement": "FSH level in blood", "setting": "G12 Female 100 mg/kg sc 1/day x7, 5 days", "result": 0.21, "unit": "mIU/mL"}, {"measurement": "FSH level in blood", "setting": "G12 Female 100 mg/kg sc 1/day x7, 6 days", "result": 0.1, "unit": "mIU/mL"}, {"measurement": "FSH level in blood", "setting": "G12 Female 100 mg/kg sc 1/day x7, 7 days", "result": 0.12, "unit": "mIU/mL"}, {"measurement": "FSH level in blood", "setting": "G12 Female 100 mg/kg sc 1/day x7, pre", "result": 0.21, "unit": "mIU/mL"}, {"measurement": "FSH level in blood", "setting": "G13 Male 100 mg/kg sc 2/week x2 (days 1,7), 4 hr", "result": 0.21, "unit": "mIU/mL"}, {"measurement": "FSH level in blood", "setting": "G13 Male 100 mg/kg sc 2/week x2 (days 1,7), 8 hr", "result": 0.23, "unit": "mIU/mL"}, {"measurement": "FSH level in blood", "setting": "G13 Male 100 mg/kg sc 2/week x2 (days 1,7), 2 days", "result": 0.24, "unit": "mIU/mL"}, {"measurement": "FSH level in blood", "setting": "G13 Male 100 mg/kg sc 2/week x2 (days 1,7), 3 days", "result": 0.19, "unit": "mIU/mL"}, {"measurement": "FSH level in blood", "setting": "G13 Male 100 mg/kg sc 2/week x2 (days 1,7), 4 days", "result": 0.26, "unit": "mIU/mL"}, {"measurement": "FSH level in blood", "setting": "G13 Male 100 mg/kg sc 2/week x2 (days 1,7), 5 days", "result": 0.37, "unit": "mIU/mL"}, {"measurement": "FSH level in blood", "setting": "G13 Male 100 mg/kg sc 2/week x2 (days 1,7), 6 days", "result": 0.19, "unit": "mIU/mL"}, {"measurement": "FSH level in blood", "setting": "G13 Male 100 mg/kg sc 2/week x2 (days 1,7), 7 days", "result": 0.14, "unit": "mIU/mL"}, {"measurement": "FSH level in blood", "setting": "G13 Male 100 mg/kg sc 2/week x2 (days 1,7), pre", "result": 0.38, "unit": "mIU/mL"}, {"measurement": "FSH level in blood", "setting": "G14 Female 100 mg/kg sc 2/week x2 (days 1,7), 4 hr", "result": 0.48, "unit": "mIU/mL"}, {"measurement": "FSH level in blood", "setting": "G14 Female 100 mg/kg sc 2/week x2 (days 1,7), 8 hr", "result": 0.4, "unit": "mIU/mL"}, {"measurement": "FSH level in blood", "setting": "G14 Female 100 mg/kg sc 2/week x2 (days 1,7), 2 days", "result": 0.23, "unit": "mIU/mL"}, {"measurement": "FSH level in blood", "setting": "G14 Female 100 mg/kg sc 2/week x2 (days 1,7), 3 days", "result": 0.17, "unit": "mIU/mL"}, {"measurement": "FSH level in blood", "setting": "G14 Female 100 mg/kg sc 2/week x2 (days 1,7), 4 days", "result": 0.14, "unit": "mIU/mL"}, {"measurement": "FSH level in blood", "setting": "G14 Female 100 mg/kg sc 2/week x2 (days 1,7), 5 days", "result": 0.24, "unit": "mIU/mL"}, {"measurement": "FSH level in blood", "setting": "G14 Female 100 mg/kg sc 2/week x2 (days 1,7), 6 days", "result": 0.17, "unit": "mIU/mL"}, {"measurement": "FSH level in blood", "setting": "G14 Female 100 mg/kg sc 2/week x2 (days 1,7), 7 days", "result": 0.22, "unit": "mIU/mL"}, {"measurement": "FSH level in blood", "setting": "G14 Female 100 mg/kg sc 2/week x2 (days 1,7), pre", "result": 0.17, "unit": "mIU/mL"}, {"measurement": "FSH level in blood", "setting": "G15 Male 250 mg/kg sc 1/day x7, 4 hr", "result": 0.26, "unit": "mIU/mL"}, {"measurement": "FSH level in blood", "setting": "G15 Male 250 mg/kg sc 1/day x7, 8 hr", "result": 0.35, "unit": "mIU/mL"}, {"measurement": "FSH level in blood", "setting": "G15 Male 250 mg/kg sc 1/day x7, 2 days", "result": 0.44, "unit": "mIU/mL"}, {"measurement": "FSH level in blood", "setting": "G15 Male 250 mg/kg sc 1/day x7, 3 days", "result": 0.12, "unit": "mIU/mL"}, {"measurement": "FSH level in blood", "setting": "G15 Male 250 mg/kg sc 1/day x7, 4 days", "result": 0.23, "unit": "mIU/mL"}, {"measurement": "FSH level in blood", "setting": "G15 Male 250 mg/kg sc 1/day x7, 5 days", "result": 0.25, "unit": "mIU/mL"}, {"measurement": "FSH level in blood", "setting": "G15 Male 250 mg/kg sc 1/day x7, 6 days", "result": 0.1, "unit": "mIU/mL"}, {"measurement": "FSH level in blood", "setting": "G15 Male 250 mg/kg sc 1/day x7, 7 days", "result": 0.12, "unit": "mIU/mL"}, {"measurement": "FSH level in blood", "setting": "G15 Male 250 mg/kg sc 1/day x7, pre", "result": 0.38, "unit": "mIU/mL"}, {"measurement": "FSH level in blood", "setting": "G16 Female 250 mg/kg sc 1/day x7, 4 hr", "result": 0.27, "unit": "mIU/mL"}, {"measurement": "FSH level in blood", "setting": "G16 Female 250 mg/kg sc 1/day x7, 8 hr", "result": 0.3, "unit": "mIU/mL"}, {"measurement": "FSH level in blood", "setting": "G16 Female 250 mg/kg sc 1/day x7, 2 days", "result": 0.34, "unit": "mIU/mL"}, {"measurement": "FSH level in blood", "setting": "G16 Female 250 mg/kg sc 1/day x7, 3 days", "result": 0.20, "unit": "mIU/mL"}, {"measurement": "FSH level in blood", "setting": "G16 Female 250 mg/kg sc 1/day x7, 4 days", "result": 0.12, "unit": "mIU/mL"}, {"measurement": "FSH level in blood", "setting": "G16 Female 250 mg/kg sc 1/day x7, 5 days", "result": 0.19, "unit": "mIU/mL"}, {"measurement": "FSH level in blood", "setting": "G16 Female 250 mg/kg sc 1/day x7, 6 days", "result": 0.18, "unit": "mIU/mL"}, {"measurement": "FSH level in blood", "setting": "G16 Female 250 mg/kg sc 1/day x7, 7 days", "result": 0.08, "unit": "mIU/mL"}, {"measurement": "FSH level in blood", "setting": "G16 Female 250 mg/kg sc 1/day x7, pre", "result": 0.19, "unit": "mIU/mL"}, {"measurement": "Change in FSH level compared to baseline", "setting": "male and female, Day 1, 4 hr and 8 hr post injection, in particular high doses (G11 to G16)", "result": "slight increase"}]}
